Measured values published in patent US8101754B2, “Triazole compounds suitable for treating disorders that respond to modulation of the dopamine D3 receptor” (Abbott GmbH & Co. KG, priority 2004, dated 2012).
Where two headings read alike, the source gives them in different places.

Columns and labels:
[1] = biological target: T1, human dopamine D3 receptors (Homo sapiens, UniProt P35462); experiment: Dopamine D3 receptor binding ([125I]-iodosulpride displacement)
T1 construct: expressed in transfected cells; membranes)
T1 sequence (P35462 whole entry): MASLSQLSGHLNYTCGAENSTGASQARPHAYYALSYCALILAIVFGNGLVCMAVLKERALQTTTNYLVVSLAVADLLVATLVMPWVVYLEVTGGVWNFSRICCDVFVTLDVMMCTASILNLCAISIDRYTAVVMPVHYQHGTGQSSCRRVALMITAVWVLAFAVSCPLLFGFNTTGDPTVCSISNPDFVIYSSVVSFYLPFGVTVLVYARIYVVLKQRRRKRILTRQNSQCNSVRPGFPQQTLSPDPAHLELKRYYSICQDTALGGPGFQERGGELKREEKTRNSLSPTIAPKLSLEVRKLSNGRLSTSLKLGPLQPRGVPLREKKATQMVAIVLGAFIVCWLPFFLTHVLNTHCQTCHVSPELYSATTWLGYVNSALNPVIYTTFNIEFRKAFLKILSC
Method: The substance to be tested was either dissolved in methanol/Chremophor® (BASF-AG) or in dimethyl sulfoxide and then diluted with water to the desired concentration.
Each assay mixture was run in triplicate.
The incubation buffer contained 50 mM tris, 120 mM NaCl, 5 mM KCl, 2 mM CaCl2, 2 mM MgCl2 and 0.1% bovine serum albumin, 10 μM quinolone and 0.1% ascorbic acid (prepared fresh daily). The buffer was adjusted to pH 7.4 with HCl.
Measurement and Analysis:
After having been incubated at 25° C. for 60 minutes, the assay mixtures were filtered through a Wathman GF/B glass fiber filter under vacuum using a cell collecting device. The filters were transferred to scintillation viols using a filter transfer system. After 4 ml of Ultima Gold® (Packard) have been added, the samples were shaken for one hour and the radioactivity was then counted in a Beta-Counter (Packard, Tricarb 2000 or 2200CA). The cpm values were converted into dpm using a standard quench series and the program belonging to the instrument.
The inhibition curves were analyzed by means of iterative nonlinear regression analysis using the Statistical Analysis System (SAS) which is similar to the “LIGAND” program described by Munson and Rodbard.

[2] = Concentration of compounds in plasma and brain following oral dosing; format: in vivo, Sprague-Dawley rats; conditions: male rats, 10 mg/kg orally by gavage
Method: 2. Determination of the Concentration of Compounds in Plasma and Brain Following Dosing of Compounds in Animals
Male Sprague-Dawley rats were used in this study (2 to 4 per experiment). The animals were fasted overnight prior to dosing and throughout the duration of the study but were permitted water ad libitum.
Each rat received a 10 mg/kg (5 mL/kg) dose orally by gavage. At 0.5, 3 and 8 hours after drug administration, three animals were put under deep anesthesia using isoflurane and euthanized by bleeding (cardiac puncture) under deep isoflurane anesthesia. EDTA blood samples and brain tissue will be collected from each rat. Upon collection, the samples were promptly placed in an ice bath, and within 2 hours after sample collection, the blood was centrifuged at about 4° C. The resulting brain and plasma samples were placed in clean glass tubes and stored in a freezer until analysis.
The plasma samples were assayed for parent compound using appropriate liquid chromatography—mass spectrometry procedures. The results for compounds I are given in tables 2, and illustrate the high brain concentrations attainable with the compounds of the invention.

[3] = biological target: T2, human dopamine D2L receptors (long isoform) (Homo sapiens, UniProt P14416); experiment: Dopamine D2L receptor binding ([125I] iodospiperone), basis of selectivity Ki(D2)/Ki(D3); conditions: for Selectivity [Ki(D2)/Ki(D3)]: Table 5, D2L vs D3; for D2/D3: Table 7, compounds of formula IIa
T2 construct: expressed in transfected cells; membranes)
T2 sequence (P14416 whole entry, canonical isoform): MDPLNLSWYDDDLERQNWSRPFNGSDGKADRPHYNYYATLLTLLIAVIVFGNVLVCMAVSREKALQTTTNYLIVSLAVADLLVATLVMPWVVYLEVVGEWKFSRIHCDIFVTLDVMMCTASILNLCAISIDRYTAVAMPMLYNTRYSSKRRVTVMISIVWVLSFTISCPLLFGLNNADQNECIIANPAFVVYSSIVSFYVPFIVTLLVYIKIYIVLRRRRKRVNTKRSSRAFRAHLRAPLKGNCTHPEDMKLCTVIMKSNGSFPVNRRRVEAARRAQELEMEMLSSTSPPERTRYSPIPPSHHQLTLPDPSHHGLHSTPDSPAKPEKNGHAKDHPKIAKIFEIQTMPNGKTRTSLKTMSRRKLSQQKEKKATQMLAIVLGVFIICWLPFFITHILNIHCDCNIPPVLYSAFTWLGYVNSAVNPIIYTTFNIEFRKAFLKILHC
Method: The substance to be tested was either dissolved in methanol/Chremophor® (BASF-AG) or in dimethyl sulfoxide and then diluted with water to the desired concentration. […] Each assay mixture was run in triplicate. The incubation buffer contained 50 mM tris, 120 mM NaCl, 5 mM KCl, 2 mM CaCl2, 2 mM MgCl2 and 0.1% bovine serum albumin. The buffer was adjusted to pH 7.4 with HCl. Measurement and Analysis: After having been incubated at 25° C. for 60 minutes, the assay mixtures were filtered through a Wathman GF/B glass fiber filter under vacuum using a cell collecting device. The filters were transferred to scintillation viols using a filter transfer system. After 4 ml of Ultima Gold® (Packard) have been added, the samples were shaken for one hour and the radioactivity was then counted in a Beta-Counter (Packard, Tricarb 2000 or 2200CA). The cpm values were converted into dpm using a standard quench series and the program belonging to the instrument. The inhibition curves were analyzed by means of iterative nonlinear regression analysis using the Statistical Analysis System (SAS) which is similar to the “LIGAND” program described by Munson and Rodbard.

[4] = Table 5, membranes of HEK-293 cells, read-out: Ki D3
[5] = Table 7, compounds of formula IIa, read-out: D3
[6] = compounds II, read-out: Ki D3 values

| Structure (SMILES) | melting point [°C] | Ki [1, 4] [nM] | Brain level ([2]; Table 5) [ng/g] | Selectivity [Ki(D2)/Ki(D3)] [3] | Ki [1, 5] [nM] | Ki [1, 6] [nM] | Brain level ([2]; Table 7) [ng/g] | D2/D3 [3] |
| --- | --- | --- | --- | --- | --- | --- | --- | --- |
| Cc1nnc([S+]([O-])CCCN2CCN(c3cc(C(C)(C)C)nc(C(C)(C)C)n3)CC2)n1C (racemic) [Example 1, 2,4-Di-tert-butyl-6-{4-[3-(4,5-dimethyl-4H-[1,2,4]triazole-3-sulfinyl)-propyl]-piperazin-1-yl}-pyrimidine] |  | 19.5 | 1670 | 26 |  |  |  |  |
| COCc1nnc(SCCCN2CCN(c3cc(C(F)F)nc(C(C)(C)C)n3)CC2)n1C.Cl [c.4, 2-tert-Butyl-4-{4-[3-(4-methyl-5-methoxymethyl-4H-[1,2,4]triazol-3-ylsulfanyl)-propyl]-piperazin-1-yl}-6-difluoromethyl-pyrimidine hydrochloride] |  |  |  |  | 1.5 | < 5 | 290 | 96 |
| CCCc1cc(N2CCN(CCCSc3nnc(COC)n3C)CC2)nc(C(C)(C)C)n1.Cl [c.12, 2-tert-Butyl-4-{4-[3-(4-methyl-5-methoxymethyl-4H-[1,2,4]triazol-3-ylsulfanyl)-propyl]-piperazin-1-yl}-6-propyl-pyrimidine hydrochloride] |  |  |  |  | 2.4 | < 5 | 780 | 143 |
| Cl.Cn1c(SCCCN2CCN(c3cc(C(F)(F)F)nc(C(C)(C)C)n3)CC2)nnc1C(F)(F)F [c.13, 2-tert-Butyl-4-{4-[3-(4-methyl-5-trifluoromethyl-4H-[1,2,4]triazol-3-ylsulfanyl)-propyl]-piperazin-1-yl}-6-trifluoromethyl-pyrimidine hydrochloride] |  |  |  |  | 1.3 |  |  | 157 |
| Cc1nnc(SCCCN2CCN(c3cc(C(F)(F)F)nc(C(C)(C)C)n3)CC2)n1C.Cl [c.14, 2-tert-Butyl-4-{4-[3-(4-methyl-5-methyl-4H-[1,2,4]triazol-3-ylsulfanyl)-propyl]-piperazin-1-yl}-6-trifluoromethyl-pyrimidine hydrochloride] |  |  |  |  | 1.5 |  |  | 135 |
| COCc1nnc(SCCCN2CCN(c3cc(C(F)(F)F)nc(C(C)(C)C)n3)CC2)n1C.Cl [c.16, 2-tert-Butyl-4-{4-[3-(4-methyl-5-methoxymethyl-4H-[1,2,4]triazol-3-ylsulfanyl)-propyl]-piperazin-1-yl}-6-trifluoromethyl-pyrimidine hydrochloride] |  |  |  |  | 0.65 | < 5 |  | 237 |

Further lines, results first:

| melting point [°C] | Ki [1, 4] [nM] | Brain level ([2]; Table 5) [ng/g] | Selectivity [Ki(D2)/Ki(D3)] [3] | Ki [1, 5] [nM] | Ki [1, 6] [nM] | Brain level ([2]; Table 7) [ng/g] | D2/D3 [3] | Structure (SMILES) |
| --- | --- | --- | --- | --- | --- | --- | --- | --- |
| 92 to 95 |  |  |  |  |  |  |  | Cl.Cn1cnnc1SCCCN1CCN(c2cc(C(F)(F)F)nc(C(C)(C)C)n2)CC1 |
|  | 6.1 | 1920 | 34 |  |  |  |  | Cc1nnc(S(=O)(=O)CCCN2CCN(c3cc(C(C)(C)C)nc(C(C)(C)C)n3)CC2)n1C [Example 4, 2,4-Di-tert-butyl-6-{4-[3-(4,5-dimethyl-4H-[1,2,4]triazole-3-sulfonyl)-propyl]-piperazin-1-yl}-pyrimidine] |
|  |  |  |  | 1.7 |  | 840 | 470 | CCCc1cc(N2CCN(CCCSc3nnc(CC)n3C)CC2)nc(C(C)(C)C)n1.Cl [c.11, 2-tert-Butyl-4-{4-[3-(4-methyl-5-ethyl-4H-[1,2,4]triazol-3-ylsulfanyl)-propyl]-piperazin-1-yl}-6-propyl-pyrimidine hydrochloride] |
|  |  |  |  | 2 | < 5 | 1410 | 364 | CCc1nnc(SCCCN2CCN(c3cc(C(F)(F)F)nc(C(C)(C)C)n3)CC2)n1C.Cl [c.15, 2-tert-Butyl-4-{4-[3-(4-methyl-5-ethyl-4H-[1,2,4]triazol-3-ylsulfanyl)-propyl]-piperazin-1-yl}-6-trifluoromethyl-pyrimidine hydrochloride] |
| 182 to 184 |  |  |  | 0.9 | < 5 |  | 293 | Cl.Cn1c(SCCCN2CCN(c3cc(C(F)(F)F)nc(C(C)(C)C)n3)CC2)nnc1C1CC1 [c.17, 2-tert-Butyl-4-{4-[3-(4-methyl-5-cyclopropyl-4H-[1,2,4]triazol-3-ylsulfanyl)-propyl]-piperazin-1-yl}-6-trifluoromethyl-pyrimidine hydrochloride] |
|  |  |  |  | 2.9 | < 5 |  | 134 | CC(=O)O.Cn1c(SCCCN2CCN(c3cc(C(F)(F)F)nc(C(C)(C)C)n3)CC2)nnc1C1CCC1 [c.18, 2-tert-Butyl-4-{4-[3-(4-methyl-5-cyclobutyl-4H-[1,2,4]triazol-3-ylsulfanyl)-propyl]-piperazin-1-yl}-6-trifluoromethyl-pyrimidine acetate] |
